Measurements published in PubChem BioAssay AID1963842 (Molecular Pharmacology Branch, DTP, NCI, 2024).

Tested on: 677734-321-R-J1-PDC complex spheroid viability
Assay: Anticancer human tumor 677734-321-R-J1-PDC patient-derived soft tissue sarcoma cell line growth inhibition [POLQ]
Conditions: for IC50: curve of first compound; for viability, T/C: stronger effect = lower value
Experimental: Multicellular complex tumor spheroid response to Polymerase (POL) inhibitors (novobiocin, ART-558, RP6685) in combination with a variety of drugs and investigational agents in selected tumor cell lines
The POL inhibitors (novobiocin, ART-558, and RP6685) were evaluated both individually and in combination with standard of care and investigational anticancer small molecules within a complex spheroid model of solid tumors. . Complex spheroids include a stromal component modeled by human endothelial cells (HUVEC) and fibroblasts modeled by human mesenchymal stem cells (MSCs). The concentration ranges selected for each drug and investigational agent were based upon clinically achievable concentrations if the clinical Cmax of the agent was known.
Compounds. The drugs and investigational agents: novobiocin (NSC847541), ART-558 (NSC835418), RP-6685 (NSC848927), peposertib (NSC802822), ceralasertib (NSC780249), elimusertib (NSC800525), camonsertib (NSC841442), AZD-1390 (NSC803789), olaparib (NSC753686), talazoparib (NSC767125), rucaparib (NSC756644), sotorasib (NSC818433), MRTX-1133 (NSC836407), SN-38 (NSC673596), topotecan (NSC609699), epotoside (NSC141540), doxorubicin (NSC123127), gemcitabine (NSC613327), 5-fluorouracil (NSC19893), paclitaxel (NSC125973), vemurafenib (NSC761431), MSA-2 (NSC828583), SN-011 (NSC837082), adavosertib (NSC754352), prexasertib (NSC758257), carboplatin (NSC241240) and oxaliplatin (NSC266046), were obtained from the National Cancer Institute (NCI) Developmental Therapeutics Program Chemical Repository (21). The FDA-approved anticancer drug set is available from the Developmental Therapeutics Program at https://dtp.cancer.gov/organization/dscb/obtaining/. […] The stock solutions were prepared in dimethyl sulfoxide (DMSO, Sigma-Aldrich, St. Louis, MO, cat. D2650), except for the platinum compounds which were prepared in saline (Quality Biological, Gaithersburg, MD, cat. 114-055-101), at 800-fold the tested concentration and stored at -70 degrees C prior to their use. All drugs and investigational agents were tested over a range starting from a high concentration at or near the clinical Cmax and decreasing in half-log increments. If the clinical Cmax for an agent had not been determined, the highest concentration tested was 10 microM, except for SN-38, which was tested at a high concentration of 1 microM.
Cell Culture. All cells were maintained in an incubator at 37 degrees C and 5% CO2 with 95% humidity. The PDC lines were cultured according to standard operating procedures established by the NCI PDMR (https://pdmr.cancer.gov). Table 3 of the manuscript, lists the cell lines along with the number of the three cell types plated to form the mct-spheroids and media for tumor cell growth. After thawing, all PDC lines, except 997537-175-T-J1-PDC and 415267-285-R-J2-PDC, were cultured in Matrigel-coated flasks prepared with a working solution of 1X Ham's F-12 nutrient mix, without supplementation (Thermo Fisher Scientific, cat. 11765054), 100 U/mL penicillin-streptomycin (Thermo Fisher Scientific, cat. 15140122), and 2.5% Matrigel (Corning Inc., Corning, NY, cat. 354248) for the first three passages. The two PDC lines 997537-175-T-J1-PDC and 415267-285-R-J2-PDC were cultured on uncoated flasks. The 857933-349-R-J2-PDC line was cultured in 6C/Colon 1B media containing advanced DMEM/F-12 (Thermo Fisher Scientific, cat. 12634028), 10 mM HEPES (Thermo Fisher Scientific, cat. 15630080), 1X GlutaMAX supplement (Thermo Fisher Scientific, cat. 35050061), 0.1 mg/mL primocin (InvivoGen, San Diego, CA, cat. ant-pm-2), 10% defined fetal bovine serum, heat inactivated (HyClone Laboratories Inc., Logan, UT, cat. SH30070.03HI), 50% L-WRN conditioned media (ATCC, cat. CRL-3276), 1.25 mM N-Acetyl-L-cysteine (Sigma-Aldrich, cat. A9165), 10 mM nicotinamide (Sigma-Aldrich, cat. N0636), 1X B-27 supplement (Thermo Fisher Scientific, cat. 17504044), 1X N-2 supplement (Thermo Fisher Scientific, cat. […]

[1] = second compound 0.0316 µM, first compound 0.0316 µM
[2] = second compound 0.0316 µM, first compound 0.1 µM
[3] = second compound 0.0316 µM, first compound 0.316 µM
[4] = second compound 0.0316 µM, first compound 1 µM
[5] = second compound 0.1 µM, first compound 0.0316 µM
[6] = second compound 0.1 µM, first compound 0.1 µM
[7] = second compound 0.1 µM, first compound 0.316 µM
[8] = second compound 0.1 µM, first compound 1 µM
[9] = second compound 0.316 µM, first compound 0.0316 µM
[10] = second compound 0.316 µM, first compound 0.1 µM
[11] = second compound 0.316 µM, first compound 0.316 µM
[12] = second compound 0.316 µM, first compound 1 µM
[13] = second compound 1 µM, first compound 0.0316 µM
[14] = second compound 1 µM, first compound 0.1 µM
[15] = second compound 1 µM, first compound 0.316 µM
[16] = second compound 1 µM, first compound 1 µM
[17] = second compound 3.16 µM, first compound 0.0316 µM
[18] = second compound 3.16 µM, first compound 0.1 µM
[19] = second compound 3.16 µM, first compound 0.316 µM
[20] = second compound 3.16 µM, first compound 1 µM
[21] = second compound 10 µM, first compound 0.0316 µM
[22] = second compound 10 µM, first compound 0.1 µM
[23] = second compound 10 µM, first compound 0.316 µM
[24] = second compound 10 µM, first compound 1 µM
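Further: spheroids exposed to compounds for one week.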
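Wherever viability, T/C is given: 100% = vehicle DMSO treated spheroids.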

With `C=CCn1c(=O)c2cnc(Nc3ccc(N4CCN(C)CC4)cc3)nc2n1-c1cccc(C(C)(C)O)n1` + COC1C(OC(N)=O)C(O)C(Oc2ccc3c(O)c(NC(=O)c4ccc(O)c(CC=C(C)C)c4)c(=O)oc3c2C)OC1(C)C the IC50 (second compound 0.0316 µM) was > 1 µM, the IC50 (second compound 0.1 µM) was > 1 µM and the IC50 (second compound 0.316 µM) was > 1 µM. For the same compound, the IC50 (second compound 1 µM) was > 1 µM, the IC50 (second compound 3.16 µM) was > 1 µM and the IC50 (second compound 10 µM) was > 1 µM. The viability, T/C (second compound 0.0316 µM, first compound 0.00316 µM) was 110%, the viability, T/C (second compound 0.0316 µM, first compound 0.01 µM) was 93.9% and the viability, T/C [1] was 101%. It also gave a viability, T/C [2] of 102%, a viability, T/C [3] of 104% and a viability, T/C [4] of 61.6%. It also gave a viability, T/C (second compound 0.1 µM, first compound 0.00316 µM) of 105%, a viability, T/C (second compound 0.1 µM, first compound 0.01 µM) of 106% and a viability, T/C [5] of 101%. The viability, T/C [6] was 99.3%, the viability, T/C [7] was 104% and the viability, T/C [8] was 72.4%. For the same compound, the viability, T/C (second compound 0.316 µM, first compound 0.00316 µM) was 119%, the viability, T/C (second compound 0.316 µM, first compound 0.01 µM) was 105% and the viability, T/C [9] was 103%. It also gave a viability, T/C [10] of 111%, a viability, T/C [11] of 111% and a viability, T/C [12] of 70.2%. It also gave a viability, T/C (second compound 1 µM, first compound 0.00316 µM) of 108%, a viability, T/C (second compound 1 µM, first compound 0.01 µM) of 102% and a viability, T/C [13] of 104%. The viability, T/C [14] was 112%, the viability, T/C [15] was 107% and the viability, T/C [16] was 66.3%. For the same compound, the viability, T/C (second compound 3.16 µM, first compound 0.00316 µM) was 101%, the viability, T/C (second compound 3.16 µM, first compound 0.01 µM) was 103% and the viability, T/C [17] was 104%. For the same compound, the viability, T/C [18] was 115%, the viability, T/C [19] was 106% and the viability, T/C [20] was 69.8%. For the same compound, the viability, T/C (second compound 10 µM, first compound 0.00316 µM) was 109%, the viability, T/C (second compound 10 µM, first compound 0.01 µM) was 110% and the viability, T/C [21] was 102%. It also gave a viability, T/C [22] of 106%, a viability, T/C [23] of 105% and a viability, T/C [24] of 76%.
With `CNCc1ccc(-c2[nH]c3cc(F)cc4c3c2CCNC4=O)cc1` + COC1C(OC(N)=O)C(O)C(Oc2ccc3c(O)c(NC(=O)c4ccc(O)c(CC=C(C)C)c4)c(=O)oc3c2C)OC1(C)C the IC50 (second compound 0.0316 µM) was > 10 µM, the IC50 (second compound 0.1 µM) was > 10 µM and the IC50 (second compound 0.316 µM) was > 10 µM. For the same compound, the IC50 (second compound 1 µM) was > 10 µM, the IC50 (second compound 3.16 µM) was > 10 µM and the IC50 (second compound 10 µM) was > 10 µM. For the same compound, the viability, T/C [1] was 101%, the viability, T/C [2] was 103% and the viability, T/C [3] was 96.6%. It also gave a viability, T/C [4] of 107%, a viability, T/C (second compound 0.0316 µM, first compound 3.16 µM) of 111% and a viability, T/C (second compound 0.0316 µM, first compound 10 µM) of 103%. For the same compound, the viability, T/C [5] was 103%, the viability, T/C [6] was 101% and the viability, T/C [7] was 101%. It also gave a viability, T/C [8] of 109%, a viability, T/C (second compound 0.1 µM, first compound 3.16 µM) of 104% and a viability, T/C (second compound 0.1 µM, first compound 10 µM) of 96.5%. The viability, T/C [9] was 107%, the viability, T/C [10] was 102% and the viability, T/C [11] was 106%. It also gave a viability, T/C [12] of 106%, a viability, T/C (second compound 0.316 µM, first compound 3.16 µM) of 104% and a viability, T/C (second compound 0.316 µM, first compound 10 µM) of 103%. It also gave a viability, T/C [13] of 114%, a viability, T/C [14] of 99.8% and a viability, T/C [15] of 101%. For the same compound, the viability, T/C [16] was 107%, the viability, T/C (second compound 1 µM, first compound 3.16 µM) was 106% and the viability, T/C (second compound 1 µM, first compound 10 µM) was 104%. For the same compound, the viability, T/C [17] was 102%, the viability, T/C [18] was 106% and the viability, T/C [19] was 100%. For the same compound, the viability, T/C [20] was 110%, the viability, T/C (second compound 3.16 µM, first compound 3.16 µM) was 108% and the viability, T/C (second compound 3.16 µM, first compound 10 µM) was 101%. For the same compound, the viability, T/C [21] was 106%, the viability, T/C [22] was 102% and the viability, T/C [23] was 106%. It also gave a viability, T/C [24] of 108%, a viability, T/C (second compound 10 µM, first compound 3.16 µM) of 105% and a viability, T/C (second compound 10 µM, first compound 10 µM) of 101%.
